Assay results: US20100041089A1, “IMPROVED METHOD FOR DETECTING CHEMICAL […]” (priority 2006, published 2010)

Tested on: yeast genes (expressed mRNA)
Assay: DNA chip measurement of expressed mRNA of yeast genes after culture with a toxic chemical substance
Format: cell-based, Saccharomyces cerevisiae S288C
In short: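 Yeast S288C, YPD 25° C; toxicant at log phase, 2 h, sublethal growth-inhibiting conc.; no-chemical control. Hot SDS/acetate RNA extraction, oligo-dT mRNA, Cy3/Cy5-dUTP RT. Whole-genome chip, 65° C >12 h. Readout: treated/control intensity ratio, ≥2 significant.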

C=CC=O [(14), Acrolein]
The level of expressed mRNA in the presence of chemical substance/The level of expressed mRNA in the absence of chemical substance (yeast gene YAL053W, cultured two hours with substance): 0.7
The level of expressed mRNA in the presence of chemical substance/The level of expressed mRNA in the absence of chemical substance (yeast gene YAR028W, cultured two hours with substance): 1.2
The level of expressed mRNA in the presence of chemical substance/The level of expressed mRNA in the absence of chemical substance (yeast gene YBL048W, cultured two hours with substance): 2.0
The level of expressed mRNA in the presence of chemical substance/The level of expressed mRNA in the absence of chemical substance (yeast gene YBL049W, cultured two hours with substance): 1.5
The level of expressed mRNA in the presence of chemical substance/The level of expressed mRNA in the absence of chemical substance (yeast gene YBL064C (detoxification protein gene)): 5.0
The level of expressed mRNA in the presence of chemical substance/The level of expressed mRNA in the absence of chemical substance (yeast gene YBL107C, cultured two hours with substance): 2.5
The level of expressed mRNA in the presence of chemical substance/The level of expressed mRNA in the absence of chemical substance (yeast gene YBR062C, cultured two hours with substance): 2.6
The level of expressed mRNA in the presence of chemical substance/The level of expressed mRNA in the absence of chemical substance (yeast gene YBR116C, cultured two hours with substance): 2.7
The level of expressed mRNA in the presence of chemical substance/The level of expressed mRNA in the absence of chemical substance (yeast gene YCR013C, cultured two hours with substance): 1.5
The level of expressed mRNA in the presence of chemical substance/The level of expressed mRNA in the absence of chemical substance (yeast gene YCR102C, cultured two hours with substance): 4.1
The level of expressed mRNA in the presence of chemical substance/The level of expressed mRNA in the absence of chemical substance (yeast gene YDL021W, cultured for two hours with substance): 3.7
The level of expressed mRNA in the presence of chemical substance/The level of expressed mRNA in the absence of chemical substance (yeast gene YDL059C, DNA repair protein genes, cultured two hours with substance): 4.7
The level of expressed mRNA in the presence of chemical substance/The level of expressed mRNA in the absence of chemical substance (yeast gene YDL072C, cultured two hours with substance): 1.8
The level of expressed mRNA in the presence of chemical substance/The level of expressed mRNA in the absence of chemical substance (yeast gene YDL204W, cultured two hours with substance): 2.4
The level of expressed mRNA in the presence of chemical substance/The level of expressed mRNA in the absence of chemical substance (yeast gene YDL218W, cultured two hours with substance): 4.8
The level of expressed mRNA in the presence of chemical substance/The level of expressed mRNA in the absence of chemical substance (yeast gene YDL222C, cultured two hours with substance): 1.3
The level of expressed mRNA in the presence of chemical substance/The level of expressed mRNA in the absence of chemical substance (yeast gene YDR031W, cultured two hours with substance): 2.5
The level of expressed mRNA in the presence of chemical substance/The level of expressed mRNA in the absence of chemical substance (yeast gene YDR330W, cultured two hours with substance): 1.1
The level of expressed mRNA in the presence of chemical substance/The level of expressed mRNA in the absence of chemical substance (yeast gene YDR391C, cultured two hours with substance): 2.3
The level of expressed mRNA in the presence of chemical substance/The level of expressed mRNA in the absence of chemical substance (yeast gene YDR411C, cultured two hours with substance): 0.8
The level of expressed mRNA in the presence of chemical substance/The level of expressed mRNA in the absence of chemical substance (yeast gene YDR486C, cultured two hours with substance): 2.4
The level of expressed mRNA in the presence of chemical substance/The level of expressed mRNA in the absence of chemical substance (yeast gene YDR511W, cultured two hours with substance): 2.2
The level of expressed mRNA in the presence of chemical substance/The level of expressed mRNA in the absence of chemical substance (yeast gene YDR545W, cultured two hours with substance): 0.7
The level of expressed mRNA in the presence of chemical substance/The level of expressed mRNA in the absence of chemical substance (yeast gene YEL001C, cultured two hours with substance): 1.3
The level of expressed mRNA in the presence of chemical substance/The level of expressed mRNA in the absence of chemical substance (yeast gene YEL057C, cultured two hours with the chemical substance): 1.5
The level of expressed mRNA in the presence of chemical substance/The level of expressed mRNA in the absence of chemical substance (yeast gene YER004W, cultured two hours with substance): 1.8
The level of expressed mRNA in the presence of chemical substance/The level of expressed mRNA in the absence of chemical substance (yeast gene YER012W): 4.6
The level of expressed mRNA in the presence of chemical substance/The level of expressed mRNA in the absence of chemical substance (yeast gene YER035W, cultured two hours with substance): 1.0
The level of expressed mRNA in the presence of chemical substance/The level of expressed mRNA in the absence of chemical substance (yeast gene YER038C, cultured two hours with substance): 1.3
The level of expressed mRNA in the presence of chemical substance/The level of expressed mRNA in the absence of chemical substance (yeast gene YER079W, cultured two hours with substance): 1.6
The level of expressed mRNA in the presence of chemical substance/The level of expressed mRNA in the absence of chemical substance (yeast gene YER106W, cultured two hours with substance): 1.5
The level of expressed mRNA in the presence of chemical substance/The level of expressed mRNA in the absence of chemical substance (yeast gene YER158C, cultured two hours with substance): 0.9
The level of expressed mRNA in the presence of chemical substance/The level of expressed mRNA in the absence of chemical substance (yeast gene YER163C, cultured two hours with substance): 1.9
The level of expressed mRNA in the presence of chemical substance/The level of expressed mRNA in the absence of chemical substance (yeast gene YER175C, cultured two hours with substance): 1.1
The level of expressed mRNA in the presence of chemical substance/The level of expressed mRNA in the absence of chemical substance (yeast gene YFL006W, cultured two hours with substance): 1.7
The level of expressed mRNA in the presence of chemical substance/The level of expressed mRNA in the absence of chemical substance (yeast gene YFL010C, cultured two hours with substance): 1.4
The level of expressed mRNA in the presence of chemical substance/The level of expressed mRNA in the absence of chemical substance (yeast gene YFL014W, DNA repair protein genes, cultured two hours with substance): 7.3
The level of expressed mRNA in the presence of chemical substance/The level of expressed mRNA in the absence of chemical substance (yeast gene YFL024C, cultured two hours with substance): 3.3
The level of expressed mRNA in the presence of chemical substance/The level of expressed mRNA in the absence of chemical substance (yeast gene YFL032W, cultured two hours with substance): 0.6
The level of expressed mRNA in the presence of chemical substance/The level of expressed mRNA in the absence of chemical substance (yeast gene YFR003C, cultured two hours with substance): 2.1
The level of expressed mRNA in the presence of chemical substance/The level of expressed mRNA in the absence of chemical substance (yeast gene YGL037C, cultured two hours with substance): 1.0
The level of expressed mRNA in the presence of chemical substance/The level of expressed mRNA in the absence of chemical substance (yeast gene YGL047W, cultured two hours with substance): 2.3
